{"source": "paper PMC5951806", "about": "“Rapid labelling and covalent inhibition of intracellular native proteins using ligand-directed N-acyl-N-alkyl sulfonamide” (Nature Communications, 2018)", "target": "T1, staphylococcal nuclease domain-containing protein 1 (SND1) (Homo sapiens, UniProt Q7KZF4)", "T1 sequence (Q7KZF4 1-910)": "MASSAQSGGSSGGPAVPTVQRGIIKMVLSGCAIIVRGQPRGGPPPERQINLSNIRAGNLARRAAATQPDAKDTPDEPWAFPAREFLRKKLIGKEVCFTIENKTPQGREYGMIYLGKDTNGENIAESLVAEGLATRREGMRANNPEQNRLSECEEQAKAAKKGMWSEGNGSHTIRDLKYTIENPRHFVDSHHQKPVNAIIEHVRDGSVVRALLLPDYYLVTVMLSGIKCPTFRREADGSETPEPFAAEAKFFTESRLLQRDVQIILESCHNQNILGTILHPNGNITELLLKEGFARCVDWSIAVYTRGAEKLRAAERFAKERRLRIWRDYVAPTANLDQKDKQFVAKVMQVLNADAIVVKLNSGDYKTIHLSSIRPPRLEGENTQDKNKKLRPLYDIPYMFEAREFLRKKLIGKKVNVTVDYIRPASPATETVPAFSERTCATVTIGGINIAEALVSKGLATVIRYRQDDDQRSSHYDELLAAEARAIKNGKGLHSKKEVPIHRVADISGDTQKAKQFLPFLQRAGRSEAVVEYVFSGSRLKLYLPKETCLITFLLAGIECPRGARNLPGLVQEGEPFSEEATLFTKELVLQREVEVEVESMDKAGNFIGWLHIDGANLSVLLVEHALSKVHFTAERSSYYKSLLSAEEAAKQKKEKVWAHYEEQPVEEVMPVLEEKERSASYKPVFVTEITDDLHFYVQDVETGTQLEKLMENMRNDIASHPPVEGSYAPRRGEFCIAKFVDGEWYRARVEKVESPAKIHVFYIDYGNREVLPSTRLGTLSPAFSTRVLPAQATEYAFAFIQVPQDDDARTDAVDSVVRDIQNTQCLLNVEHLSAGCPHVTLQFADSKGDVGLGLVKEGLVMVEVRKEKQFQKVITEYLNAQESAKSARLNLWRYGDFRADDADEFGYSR", "assay": "TMT LC-MSMS of 11-labelled proteins", "type": "cell-based"}
{"smiles": "CC(=O)Oc1ccc2c(c1)Oc1cc(OC(C)=O)ccc1C21OC(=O)c2cc(C(=O)NCCOCCOCCNC(=O)CCCC(=O)N(CC#N)S(=O)(=O)c3ccc(C(=O)NCCCn4c(Sc5cc6c(cc5I)OCO6)nc5c(N)ncnc54)cc3)ccc21", "note": "[compound 11]", "values": [{"measurement": "Abundance Ratio: (11) / (11 with PU-H71)", "setting": "Exp3, SND1", "result": 0.662}, {"measurement": "Abundance Ratio: (11) / (DMSO)", "setting": "Exp3, SND1", "result": 1.871}, {"measurement": "Abundances (Grouped): 11", "setting": "Exp3, SND1", "result": 30.5}, {"measurement": "Abundances (Grouped): 11 with PU-H71", "setting": "Exp3, SND1, with PU-H71", "result": 46.1}, {"measurement": "Abundance Ratio: (11) / (DMSO)", "setting": "sheet Exp1, SKBR3 cells, 11 0.5 µM 3 h vs DMSO", "result": 2.172}, {"measurement": "Abundance Ratio: (11) / (11 with PU-H71)", "setting": "sheet Exp1, SKBR3 cells, 11 0.5 µM 3 h vs with PU-H71 10 µM", "result": 0.838}, {"measurement": "Abundance Ratio: (11) / (DMSO)", "setting": "sheet Merged, SKBR3 cells, 11 0.5 µM 3 h vs DMSO", "result": 2.016}, {"measurement": "Abundance Ratio: (11) / (11 with PU-H71)", "setting": "sheet Merged, SKBR3 cells, 11 0.5 µM 3 h vs with PU-H71 10 µM", "result": 0.745}]}
